How the values were obtained:
Assay type in all cases: functional
Vanilloid receptor = Vanilloid receptor (Rattus norvegicus, UniProt Q9ERZ8+Q9WUD2+O35433); assay: Effective concentration for [Ca2+] uptake into dorsal root ganglia neurones in rat cultured spinal sensory neurones
Mus musculus = assay: In vivo analgesic dose in mouse tail flick latency model
Cavia porcellus = species: Cavia porcellus; assay: In vitro effective dose for contraction of guinea pig ileum

Compound `CCCCCCCCC(=O)NC(=S)NCc1ccc(O)c(OC)c1` has an EC50 (Vanilloid receptor) of over 100000 nM.

`CCCCCCCCN/C(NCc1ccc(O)c(OC)c1)=[S+]\C.[I-]` gave an EC50 (Vanilloid receptor) of over 100000 nM.

Compound `CCCCCCCCSC(=O)Cc1ccc(O)c(OC)c1` has an EC50 (Vanilloid receptor) of 1170 nM.

`CCCCCCCCNC(=O)/C=C/c1ccc(O)c(OC)c1` was tested, and the EC50 (Vanilloid receptor) was over 100000 nM.

`CCCCCCCCC(=O)CCc1ccc(O)c(OC)c1` showed an EC50 (Vanilloid receptor) of 2130 nM.

`CCCCCCCCN(C)/C(S)=N/Cc1ccc(O)c(OC)c1` was tested, and the EC50 (Vanilloid receptor) was 530 nM.

`CCCCCCCCNC(=O)C(O)c1ccc(O)c(OC)c1` (stereo unspecified) gave an EC50 (Vanilloid receptor) of 1160 nM.

In the case of `CCCCCCCC/N=C(\S)NCc1ccc(O)c(OC)c1`, the ED50 (Mus musculus) is reported as 3.2 µmol/kg.

`CCCCCCCCC(=O)Nc1ccc(O)c(OC)c1` showed an EC50 (Cavia porcellus) of 1170 nM, an ED50 (Mus musculus) of over 50 µmol/kg and an EC50 (Vanilloid receptor) of 4480 nM.

With `CCCCCCCCOC(=O)Cc1ccc(O)c(OC)c1` the EC50 (Vanilloid receptor) was 670 nM.

Compound `CCCCCCCCS(=O)(=O)NCc1ccc(O)c(OC)c1` has an EC50 (Cavia porcellus) of 2900 nM, an ED50 (Mus musculus) of over 50 µmol/kg and an EC50 (Vanilloid receptor) of 1320 nM.

Compound `CCCCCCCCN/C(=C\[N+](=O)[O-])NCc1ccc(O)c(OC)c1` has an EC50 (Vanilloid receptor) of over 100000 nM.

`CCCCCCCC/C(S)=N\Cc1ccc(O)c(OC)c1` showed an EC50 (Cavia porcellus) of 1230 nM, an ED50 (Mus musculus) of 38 µmol/kg and an EC50 (Vanilloid receptor) of 280 nM.

`CCCCCCCCC(=O)NCCc1ccc(O)c(OC)c1` showed an EC50 (Vanilloid receptor) of 18300 nM.

For `CCCCCCCCNC(=O)Cc1ccc(O)c(OC)c1`, the ED50 (Mus musculus) was 9.2 µmol/kg and the EC50 (Vanilloid receptor) was 300 nM.

Compound `CCCCCCCCNC(=O)NCc1ccc(O)c(OC)c1` has an EC50 (Vanilloid receptor) of 360 nM.

`CCCCCCCCCC(=O)Cc1ccc(O)c(OC)c1` was tested, and the EC50 (Vanilloid receptor) was 3780 nM.

In the case of `CCCCCCCC/N=C(/S)Nc1ccc(O)c(OC)c1`, the EC50 (Cavia porcellus) is reported as 2560 nM, the ED50 (Mus musculus) is reported as over 50 µmol/kg and the EC50 (Vanilloid receptor) is reported as 2570 nM.

`CCCCCCCCC(=O)N(C)Cc1ccc(O)c(OC)c1` gave an EC50 (Vanilloid receptor) of over 100000 nM.

For `CCCCCCCCNC(=O)CCc1ccc(O)c(OC)c1`, the EC50 (Vanilloid receptor) was 2320 nM.

`CCCCCCCCCCCc1ccc(O)c(OC)c1` was tested, and the EC50 (Vanilloid receptor) was over 100000 nM.

Work on `CCCCCCCCC(=O)/C=C/c1ccc(O)c(OC)c1` yielded an EC50 (Vanilloid receptor) of over 100000 nM.

For `CCCCCCCCC(=O)OCc1ccc(O)c(OC)c1`, the EC50 (Vanilloid receptor) was 14200 nM.

`CCCCCCCCN(C)C(=O)Cc1ccc(O)c(OC)c1` showed an EC50 (Vanilloid receptor) of 6290 nM.

With `CCCCCCCCNC(=O)/C=C\c1ccc(O)c(OC)c1` the EC50 (Vanilloid receptor) was 17900 nM.

With `CCCCCCCCNC(=O)c1ccc(O)c(OC)c1` the EC50 (Vanilloid receptor) was over 100000 nM.

`CCCCCCCC/N=C(/NC#N)NCc1ccc(O)c(OC)c1` showed an EC50 (Cavia porcellus) of 6350 nM, an ED50 (Mus musculus) of over 50 µmol/kg and an EC50 (Vanilloid receptor) of 3280 nM.

In the case of `CCCCCCCC/N=C(/S)N(C)Cc1ccc(O)c(OC)c1`, the EC50 (Vanilloid receptor) is reported as over 100000 nM.

Work on `COc1cc(CNC(=O)CCCC/C=C/C(C)C)ccc1O` [CAPSAICIN] yielded an ED50 (Mus musculus) of 15 µmol/kg.

With `CCCCCCCCC(=O)NCc1ccc(O)c(OC)c1` [NONIVAMIDE] the ED50 (Mus musculus) was 5 µmol/kg.

Source: ChEMBL document CHEMBL1127069 (J Med Chem, 1993)
